Drawing on paper PMC3906536, “The cyclic AMP phosphodiesterase RegA critically regulates encystation in social and pathogenic amoebas^” (Cellular Signalling, 2014), this text covers IC50 for 3 compounds.

Molecules are shown by their SMILES.

T1 sequence (L7WMY9 entry or part of it): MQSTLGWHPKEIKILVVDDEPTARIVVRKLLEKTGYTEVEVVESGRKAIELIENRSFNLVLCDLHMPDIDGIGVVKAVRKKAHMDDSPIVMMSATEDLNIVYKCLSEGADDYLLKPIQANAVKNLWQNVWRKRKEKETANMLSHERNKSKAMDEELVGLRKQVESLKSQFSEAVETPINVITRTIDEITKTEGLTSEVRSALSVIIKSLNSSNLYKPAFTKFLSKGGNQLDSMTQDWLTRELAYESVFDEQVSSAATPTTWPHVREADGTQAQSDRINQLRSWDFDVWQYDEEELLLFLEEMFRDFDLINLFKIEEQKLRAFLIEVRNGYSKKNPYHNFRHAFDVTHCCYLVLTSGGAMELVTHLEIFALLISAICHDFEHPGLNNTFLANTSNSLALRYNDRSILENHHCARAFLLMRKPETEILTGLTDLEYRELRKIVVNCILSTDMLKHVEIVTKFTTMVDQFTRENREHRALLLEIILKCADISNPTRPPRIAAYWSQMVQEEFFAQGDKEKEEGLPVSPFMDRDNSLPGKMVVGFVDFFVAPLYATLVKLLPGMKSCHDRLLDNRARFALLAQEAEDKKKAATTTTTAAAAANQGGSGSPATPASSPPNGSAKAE

This test addresses T1, Acas RegA (cAMP phosphodiesterase RegA) (Acanthamoeba castellanii, UniProt L7WMY9).
T1 construct: 621 aa protein from full cDNA, N-terminal hexahis-tag, expressed in E. coli
Description: inhibition of 3H-cAMP hydrolysis by purified RegA. Format: biochemical.
For orientation: IC50 means the concentration that inhibits the measured activity by half. Read a high IC50 as a need for much substance. `Clc1cccc(Nc2nnc(-c3ccccc3)c3ccccc23)c1` [MY-5445] showed an IC50 of 400 µM.

`OCCN(CCO)c1nc(N2CCCCC2)c2nc(N(CCO)CCO)nc(N3CCCCC3)c2n1` [dipyridamole] returned a 50% inhibitory concentration (IC50) of 12 µM. This IC50 lies about 33-fold lower than the previous one.

In turn, `COc1cc2c(cc1OC)-c1c/c(=N\c3c(C)cc(C)cc3C)n(C)c(=O)n1CC2` [trequinsin] came in with an IC50 of 30 µM. Against the preceding compound, the IC50 is about 2.5-fold higher.
